Source: US11512079B2, “Heterocycle substituted pyridine derivative antifungal agents” (Amplyx Pharmaceuticals, Inc., priority 2017, dated 2022)
In brackets after ≈: the same amount, converted by molar mass.

Experiments:
[1] = system: Cryptococcus neoformans H99; assay: In vitro antifungal assay (Example IX), microdilution broth, MIC; type: cell-based; details: minimum inhibitory concentration (≥50% inhibition), 35° C., 72 h, RPMI1640
Method in brief: (§1)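 Yeast inocula (2.5×10^3 cells/mL, RPMI1640) were exposed to twofold compound series reaching 2-0.0019 μg/mL final, per CLSI yeast methodology. Incubation at 35° C. ran 40-48 h for Candida albicans 90028 and 72 h for Cryptococcus neoformans H99. MIC endpoints were confirmed by absorbance at 600 nm.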

Candida albicans 90028 = assay: as above; type: cell-based; details: minimum inhibitory concentration (≥50% inhibition), 35° C., 40-48 h, RPMI1640
Method in brief: as §1

A. fumigatus MYA3626 = assay: Antifungal susceptibility testing, CLSI broth microdilution (Example 496/497); type: cell-based, Aspergillus fumigatus; details: Aspergillus fumigatus, MYA3626; MEC, shortening of hyphae, 40 to 48 h; read-out: MIC or MEC A. fumigatus MYA3626
Text: (§2) Isolates tested. C. neoformans strains H99, DUMC 118.00, DUMC 158.03 and C. gattii strains R272, and RSA-MW-3515 were obtained from Duke University. C. albicans 90028, A. fumigatus MYA3626, C. neoformans 14116, C. neoformans 76484 and the pathogenic Cryptococcus reference strains panel (ATCC MP-11) were obtained from American Type Culture Collection (ATCC, Manassas, Va., USA). The MP-11 panel consists of strains representing eight molecular types and three subtypes of C. neoformans and C. gattii.
(§3) Antifungal susceptibility testing. To establish antimicrobial activity, broth microdilution susceptibility testing was performed according to Clinical and Laboratory Standards Institute (CLSI) guidelines M27-A3 for yeasts and M38-A2 for molds. Compound 2 and analogs were first diluted in DMSO to obtain intermediate dilutions. These were further diluted in microtiter plates to obtain a final concentration of 2 to 0.002 μg/mL. 1 μl of DMSO was added to “No drug” control wells. The solutions were mixed on a plate shaker for 10 mins and plates incubated at 35° C. for 40 to 48 h (C. albicans, A. fumigatus) and 72 h (C. neoformans). The minimum concentration that led to 50% reduction in fungal growth as compared to the control (with the aid of a reading mirror) was determined as the minimum inhibitory concentration (MIC) for C. albicans and C. neoformans. The minimum concentration that led to shortening of hyphae as compared to hyphal growth in DMSO control wells was determined as the minimum effective concentration (MEC) for A. fumigatus (as read for echinocandins). The use of the MIC and MEC endpoints for Compound 2 against yeasts and molds, respectively has been described previously.

[2] = system: Aspergillus fumigatus MYA3626; assay: In vitro antifungal assay (Example IX), microdilution broth, MEC; type: cell-based; details: minimum effective concentration (shortening of hyphae), 35° C., 40-48 h, RPMI1640
Method in brief: (§4)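 Read-out is the minimum effective concentration: lowest compound level causing shorter hyphae than in DMSO controls, echinocandin-style. Broth microdilution used conidia or spores harvested from agar plates, cleared of mycelium and clumps, at a final 1-2×10^4 spores/mL in RPMI1640.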

[3] = system: Rhizomucor pusillus 46342; assay: as above; type: cell-based; details: minimum effective concentration (shortening of hyphae), 35° C., 40-48 h, RPMI1640
Method in brief: as §4

Cryptococcus gattii = assay: In vitro antifungal assay (Example IX), microdilution broth, MIC; type: cell-based; details: minimum inhibitory concentration (≥50% inhibition), 35° C., 72 h (Cryptococcus), RPMI1640
Method in brief: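 MIC was determined from OD600 after 72 h at 35 °C for Cryptococcus, in RPMI1640 inoculated at 2.5×10^3 cells/mL. Compounds were tested as a 2-fold series from 2 to 0.0019 μg/mL final, added from DMSO intermediates at a 100-fold dilution.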

C. neoformans H99 = assay: Antifungal susceptibility testing, CLSI broth microdilution (Example 496/497); type: cell-based, Cryptococcus neoformans
Text: as §2, §3

[4] = system: strains of C. neoformans and C. gattii; assay: Activity vs Cryptococcus, summary over the strains tested; type: cell-based, Cryptococcus neoformans and Cryptococcus gattii; details: for MIC GEOMEAN: geometric mean over the 18 isolates of C. neoformans and C. gattii; for MIC90: panel of 18 isolates of C. neoformans and C. gattii
Text: (§5) The activity of Gwt1 inhibitors against susceptible and FLC non-susceptible/resistant strains.
as §2
(§6) Antifungal susceptibility testing. To establish antimicrobial activity, broth microdilution susceptibility testing was performed according to Clinical and Laboratory Standards Institute (CLSI) guidelines M27-A3 for yeasts and M38-A2 for molds. Compound 2 and analogs were first diluted in DMSO to obtain intermediate dilutions. These were further diluted in microtiter plates to obtain a final concentration of 2 to 0.002 μg/mL. 1 μl of DMSO was added to “No drug” control wells. The solutions were mixed on a plate shaker for 10 mins and plates incubated at 35° C. for 40 to 48 h (C. albicans, A. fumigatus) and 72 h (C. neoformans). The minimum concentration that led to 50% reduction in fungal growth as compared to the control (with the aid of a reading mirror) was determined as the minimum inhibitory concentration (MIC) for C. albicans and C. neoformans.

C. neoformans strain H99 = assay: Murine model of cryptococcal meningitis, dosing in the presence of the pan-CYP inhibitor ABT, CD-1 mice; type: in vivo, Cryptococcus neoformans; details: for reduction of CFU in brain vs untreated control / reduction of CFU in lung vs untreated control: preliminary experiment, 100 mg/kg ABT PO 2 h prior to each dose, n=5
Description: Efficacy of exemplary compounds in a murine model of cryptococcal meningitis when dosed in the presence of the pan-CYP inhibitor ABT. […] 100 mg/kg ABT was administered orally to male CD-1 mice 2 h prior to compound administration. Mice were injected with 6.9×10^4 CFU C. neoformans strain H99 per mouse via lateral tail vein at T=0 h. Treatment with each prodrug was initiated about 1 h post-infection by IP administration and continued daily for 7 days with 100 mg/kg ABT administered orally 2 h prior to each dose of compound. The mean log10 CFU/g brain and lung counts in untreated control mice were 7.83±0.09 and 4.67±0.88, respectively (FIG. 1).
[…] A 60 mg/kg dose QD without ABT was also evaluated as a control.
Cryptococcal meningitis model. C. neoformans strain H99 was grown in YPD broth at 30° C. on a shaker (220 rpm) for 24 h, centrifuged (1980 ref) and washed twice in PBS, resuspended in PBS, and quantified by hemacytometric count. CD-1 male mice were infected with ˜5×10^4 CFU per mouse via lateral tail vein injection of 100 μL. Mice were weighed, and treatment was within 1 h after infection. Treatments were administered daily for seven days. Mice were weighed daily and observed for acute and chronic adverse symptoms. Mice were sacrificed on day 8, and brain and left lung were homogenized and cultured for quantitative determination of tissue burden (CFU per gram of tissue). Tissues were homogenized for 25 seconds in […] phosphate buffered saline using two 6.5 mm steel beads and a Mini-Beadbeater 16 (Biospec Products, Inc., Bartlesville, Okla.), and serially diluted in 10-fold steps. Aliquots ([…]) of homogenate were plated and incubated for 3 to 7 days at 37° C. Fungal burden data were log10 transformed and evaluated using Kruskal-Wallis tests with Dunn's Multiple Comparison Test for Post-hoc analysis (Prism 5; GraphPad Software, Inc., San Diego, Calif.). A P value of ≤0.05 is considered statistically significant.

C. neoformans isolates = assay: Activity vs susceptible and FLC non-susceptible/resistant strains, broth microdilution; type: cell-based, Cryptococcus neoformans
Text: as §5, §2, §6

C. gattii isolates = assay: as above; type: cell-based, Cryptococcus gattii
Text: as §5, §2, §6

[5] = in the presence of ABT, 20 mg/kg Ex. 172 prodrug, 60 mg/kg Ex. 173 prodrug, 80 mg/kg Compound 1
[6] = C. neoformans DUMC 118.00 (FLC-resistant)
[7] = C. neoformans DUMC 158.03 (FLC-resistant)
[8] = C. gattii RSA-MW-3615 (FLC-resistant)

Compound	MIC [1]	MIC (Candida albicans 90028)	MIC (A. fumigatus MYA3626)	minimal effective concentration [2]	minimal effective concentration [3]	MIC (Cryptococcus gattii)	MIC (C. neoformans isolates; C. neoformans 14116)	MIC (C. neoformans isolates; C. neoformans 76484)	MIC (C. neoformans isolates; [6])	MIC (C. neoformans isolates; [7])	MIC (C. neoformans isolates; C. neoformans H99)	MIC (C. neoformans isolates; C. neoformans MYA-4564)	MIC (C. neoformans isolates; C. neoformans MYA-4565)	MIC (C. neoformans isolates; C. neoformans MYA-4566)	MIC (C. neoformans isolates; C. neoformans MYA-4567)	MIC (C. gattii isolates; C. gattii MYA-4093)	MIC (C. gattii isolates; C. gattii MYA-4094)	MIC (C. gattii isolates; C. gattii MYA-4560)	MIC (C. gattii isolates; C. gattii MYA-4561)	MIC (C. gattii isolates; C. gattii MYA-4562)	other results
Nc1ncccc1-c1cc(Cc2ccc(Oc3cccc(F)n3)cc2)no1 [Ex. 111]	≤ 0.01 µg/mL	0.01 to 0.1 µg/mL (≈ 0.0276 to 0.276 µM)	0.063 µg/mL (≈ 0.174 µM)	0.01 to 0.1 µg/mL	0.1 to 1 µg/mL	≤ 0.01 µg/mL	–	–	–	–	–	–	–	–	–	–	–	–	–	–	–
Nc1ncccc1-c1cc(Cc2ccc(OCc3ccccc3)cc2)no1 [Ex. 185]	0.01 to 0.1 µg/mL (≈ 0.028 to 0.28 µM)	0.1 to 1 µg/mL (≈ 0.28 to 2.8 µM)	0.016 µg/mL (≈ 0.0448 µM)	0.1 to 1 µg/mL	0.1 to 1 µg/mL	0.01 to 0.1 µg/mL (≈ 0.028 to 0.28 µM)	–	–	–	–	–	–	–	–	–	–	–	–	–	–	–
Nc1ncccc1-c1cc(Cc2ccc(Oc3cccc(F)n3)cc2)no1	–	–	–	–	–	–	–	–	–	–	–	–	–	–	–	–	–	–	–	–	exposure, fold higher than the three other compounds (oral administration of prodrug with ABT): approximately 2 fold; AUC, fold higher than the other compounds (prodrugs administered IP): approximately 2 fold; MIC (C. neoformans H99; Cryptococcus neoformans, H99, 72 h, read-out: MIC C. neoformans H99): 0.008 µg/mL (≈ 0.0221 µM); fold improved anti-C. neoformans H99 activity compared to Compound 2 (C. neoformans H99; from MIC values): 32 fold; fold lower MIC values compared to Compound 2 vs Cryptococcus ([4]; C. neoformans H99 and C. gattii WM276 (Table 3)): 32 fold
Nc1c(-c2cc(Cc3ccc(OCc4ccccc4)cc3)no2)ccc[n+]1COP(=O)([O-])O	–	–	–	–	–	–	–	–	–	–	–	–	–	–	–	–	–	–	–	–	log10 CFU/g brain reductions at doses of similar AUC (approximately 80 μg·h/mL) (C. neoformans strain H99; [5]): 1.45 log10 CFU/g; log10 CFU/g lung reductions at doses of similar AUC (approximately 80 μg·h/mL) (C. neoformans strain H99; [5]): 1.55 log10 CFU/g; reduction of CFU in brain vs untreated control (C. neoformans strain H99; 34 mg/kg QD IP 7 days): 1.66 log10 CFU/g; reduction of CFU in lung vs untreated control (C. neoformans strain H99; 34 mg/kg QD IP 7 days): 1.07 log10 CFU/g; reduction of CFU in brain vs untreated control (C. neoformans strain H99; 85 mg/kg QD IP 7 days): 2.72 log10 CFU/g; reduction of CFU in lung vs untreated control (C. neoformans strain H99; 85 mg/kg QD IP 7 days): 3.28 log10 CFU/g
Nc1ncccc1-c1cc(Cc2ccc(OCc3ccccc3)cc2)no1 [Example 2020]	–	–	–	–	–	–	0.031 µg/mL (≈ 0.0867 µM)	0.063 µg/mL (≈ 0.176 µM)	0.063 µg/mL (≈ 0.176 µM)	0.25 µg/mL (≈ 0.699 µM)	0.031 µg/mL (≈ 0.0867 µM)	0.063 µg/mL (≈ 0.176 µM)	0.25 µg/mL (≈ 0.699 µM)	0.125 µg/mL (≈ 0.35 µM)	0.063 µg/mL (≈ 0.176 µM)	0.125 µg/mL (≈ 0.35 µM)	0.25 µg/mL (≈ 0.699 µM)	0.063 µg/mL (≈ 0.176 µM)	0.125 µg/mL (≈ 0.35 µM)	0.125 µg/mL (≈ 0.35 µM)	MIC (C. gattii isolates; C. gattii MYA-4563): 0.125 µg/mL (≈ 0.35 µM); MIC (C. gattii isolates; C. gattii MYA-4877): 0.063 µg/mL (≈ 0.176 µM); MIC (C. gattii isolates; [8]): 0.031 µg/mL (≈ 0.0867 µM); MIC GEOMEAN [4]: 0.085 µg/mL (≈ 0.238 µM); MIC90 [4]: 0.25 µg/mL (≈ 0.699 µM)
Nc1ncccc1-c1cc(Cc2ccc(Oc3cccc(F)n3)cc2)no1 [Example 2039]	–	–	–	–	–	–	0.004 µg/mL (≈ 0.011 µM)	0.004 µg/mL (≈ 0.011 µM)	0.016 µg/mL (≈ 0.0442 µM)	0.031 µg/mL (≈ 0.0855 µM)	0.004 µg/mL (≈ 0.011 µM)	0.004 µg/mL (≈ 0.011 µM)	0.031 µg/mL (≈ 0.0855 µM)	0.008 µg/mL (≈ 0.0221 µM)	0.016 µg/mL (≈ 0.0442 µM)	0.016 µg/mL (≈ 0.0442 µM)	0.016 µg/mL (≈ 0.0442 µM)	0.008 µg/mL (≈ 0.0221 µM)	0.016 µg/mL (≈ 0.0442 µM)	0.016 µg/mL (≈ 0.0442 µM)	MIC (C. gattii isolates; C. gattii MYA-4563): 0.016 µg/mL (≈ 0.0442 µM); MIC (C. gattii isolates; C. gattii MYA-4877): 0.008 µg/mL (≈ 0.0221 µM); MIC (C. gattii isolates; [8]): 0.004 µg/mL (≈ 0.011 µM); MIC GEOMEAN [4]: 0.010 µg/mL (≈ 0.0276 µM); MIC90 [4]: 0.031 µg/mL (≈ 0.0855 µM)
